# Data as given in patent US8461082B2, “Herbicidal composition and method for removing unwanted foliage” (priority 2006, dated 2013).
# How the values were obtained:
# [1] = Dissolution of glyphosate acid on stirring into diluted Alkali Surfactant Blend in 20 L buckets; format: physicochemical; details: bucket, at the higher concentrations
# Protocol: Approximately 13 L of water was added to each of five 20 litre (“L”) plastic buckets (Table 1). Pack 1 was made by taking 37.5 parts monoethanolamine (“MEA”) and 25.3 parts of a cocobetaine surfactant called Empigen BB from Huntsman Chemical Company Australia. Pack 1 was also called the Alkaline-Surfactant Blend in this and later examples.
# Glyphosate acid technical material with a purity of 95% and a particle size smaller than 1 mm (Pack 2) was then added to the buckets at the rates given in Table 1 and stirred with a plastic paddle until all the acid disappeared. This took 3-5 minutes at the higher concentrations.
# Approximately 13 L of water was added to seven 20 L plastic buckets (Table 5). A blend of 37.5 parts MEA and 25.3 parts of the cocobetain surfactant Empigen BB was made to form the Alkali Surfactant Blend (Pack 1). Glyphosate acid (Pack 2) with a purity of 95% was then added to the buckets at the rates given in Table 5 and stirred with a plastic paddle until all the acid disappeared. This took 3-5 minutes at the higher concentrations.
# Approximately 13 L of water was added to seven 20 L plastic buckets (Table 22). The Alkali Surfactant Blend of monoethanolamine and the cocamidopropyl betaine (Pack 1) was then added to the water at the rates given in the Table. […]
# [2] = Examples 4-6 mixing in 1000 L commercial spray tank, dissolution and pH; format: physicochemical
# Description: A commercial “Silvan” Trailing Boom Spray fitted with a 1000 L tank was used for this experiment. The boom was 10 m wide.
# The glyphosate material used was glyphosate acid (purity 95%) with a particle size where 95% can pass through a 1.2 mm sieve.
# The spray tank was filled with 900 L of water. The recirculation or agitation system was driven by a power take off (“PTO”) from the tractor. The recirculation system consisted of a wet boom, submerged at the base of the tank with outlets to one side of the tank's midline. […] This is acceptable agitation by commercial spray boom standards.
# With the PTO operating, a blend made from 0.979 kg of the surfactant Empigen BB and 1.57 kg of the monoethanolamine was poured into the tank and allowed to disperse for one minute.
# 4.26 kg of glyphosate acid was then tipped into the water.
# A commercial “Silvan” brand Trailing Boom Spray fitted with a 1000 L tank was use for this experiment. The boom was 10 m wide.
# Glyphosate acid (purity 95%) with a particle size where 95% can pass through a 0.5 mm sieve.
# The spray tank was filled with 900 L of water. The recirculation or agitation system was driven by a PTO from the tractor. The recirculation system consisted of a wet boom at the base of the tank with outlets to one side of the tank's midline. […] This is adequate agitation by commercial spray boom standards.
# 4.26 kg of the milled glyphosate acid was tipped into the water.
# A commercial “Silvan” Trailing Boom Spray fitted with a 1000 L tank was use for this experiment. The boom was 10 m wide.
# Glyphosate acid (purity 95%) with a particle size where 95% can pass through a 1.2 mm sieve but not through a 0.5 mm sieve.
# A blend made from 0.979 kg of the surfactant Empigen BB, a cocobetaine surfactant, and 1.57 kg of the monoethanolamine (MEA) was poured into the tank and allowed to disperse for one minute. A sample of water was collected and analysed for pH.
# A plastic mesh insert with holes of 3-4 mm diameter was fitted into the mouth of the tank and 4.26 kg of glyphosate acid was tipped into the insert. […]
# A sample of water was then taken and analysed for pH.
smiles,measurement,setting,value
"O=C(O)CNCP(=O)(O)O [glyphosate acid, N-phosphonomethyl glycine]",time stirred until all the acid disappeared,[1]; about 13 L water with MEA/Empigen BB blend,3 to 5 min
same,time stirred until all the acid disappeared,[1]; about 13 L water with MEA/cocamidopropyl betaine blend,approximately 3 minutes
same,dissolution of glyphosate acid in spray tank,"[2]; Example 4: 4.26 kg acid (95% passes 1.2 mm sieve) tipped into 900 L water with MEA/Empigen BB blend, agitated, no mesh insert",almost all disappeared over the next 5 minutes
same,time for glyphosate acid to disappear in spray tank,"[2]; Example 5: 4.26 kg milled acid (95% passes 0.5 mm sieve) tipped into 900 L water with MEA/Empigen BB blend, agitated, no mesh insert",≤ 10 min
same,undissolved acid in spray tank after washing through mesh,[2]; Example 6: 4.26 kg acid washed through 3-4 mm plastic mesh insert over 1-2 minutes into 900 L water with MEA/Empigen BB blend,no evidence of undissolved acid
